Test systems include MOLT-4 leukemia; HCT-15 colon; UACC-62 melanoma; BT-549 breast; RPMI-8226 leukemia; HT29 colon; OVCAR-5 ovarian; IGROV1 ovarian; SK-OV-3 ovarian; HOP-92 NSCLC.
Holding throughout (experiment): NCI-60 cell line screen, 48 h

Where “and” joins values, the source holds several entries; their conditions need not be identical. Equal entries are not always repeated.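 Dose response: 5 concentrations. Exposure: 48 h. Format: 96-well plates. Endpoint: linear interpolation; highest concentration if not reached. GI50 = concentration required for 50% inhibition of growth. TGI: concentration producing complete growth inhibition.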 A value given as a limit tells only on which side of the number the result lay.

Take `CCCOC(=O)C1C2CCC(O2)C1C(=O)O` (centres undefined): the TGI in the assay with MOLT-4 leukemia, in the assay with HCT-15 colon, in the assay with UACC-62 melanoma, in the assay on BT-549 breast, with RPMI-8226 leukemia and in the assay with HT29 colon was more than 100 µM throughout. The TGI with OVCAR-5 ovarian, in the assay with IGROV1 ovarian and in the assay on SK-OV-3 ovarian was more than 100 µM in each case.

`COc1cccc2c1cc1c3c(cc4c(c32)OCO4)C(=O)N1`: the GI50 in the assay with HCT-15 colon is 4.14 µM; with UACC-62 melanoma it was 4.65 µM; in the assay with BT-549 breast it was 2.08 µM; with RPMI-8226 leukemia, 5.29 µM; in the assay with HT29 colon it was 5.02 µM; with HOP-92 NSCLC, 1.71 µM. In addition, the GI50 in the assay on OVCAR-5 ovarian was 6.56 µM; in the assay with IGROV1 ovarian it was 4.26 µM; with SK-OV-3 ovarian it was 13.6 µM. In addition, the TGI is more than 100 µM in the assay on HCT-15 colon; more than 100 µM with UACC-62 melanoma; 4.74 µM in the assay with BT-549 breast; more than 100 µM in the assay with RPMI-8226 leukemia; 73 µM in the assay on HT29 colon; 6.98 µM in the assay on HOP-92 NSCLC. For the same compound, the TGI in the assay on OVCAR-5 ovarian is more than 100 µM; in the assay on IGROV1 ovarian, 34.4 µM; with SK-OV-3 ovarian it was 48.9 µM.

For the compound `NS(=O)(=O)c1ccc(NC(=O)c2cccc(NC3=C(Cl)C(=O)N(Cc4ccccc4)C3=O)c2)cc1`, the GI50 was 2.09 µM in the assay on MOLT-4 leukemia; 15.1 µM in the assay on HCT-15 colon; 9.05 µM in the assay on UACC-62 melanoma; 5.31 µM in the assay on BT-549 breast; 3.51 µM with RPMI-8226 leukemia; 33.3 µM in the assay on HT29 colon. In addition, the GI50 was 8.09 µM in the assay with HOP-92 NSCLC, 4.78 µM with IGROV1 ovarian and 26.9 µM in the assay on SK-OV-3 ovarian. The TGI with MOLT-4 leukemia is 7.99 µM; in the assay on HCT-15 colon, 38.8 µM; in the assay on UACC-62 melanoma, 22.9 µM; with BT-549 breast, 21.3 µM; with RPMI-8226 leukemia, 14.7 µM; with HT29 colon it was more than 100 µM. Moreover, the TGI in the assay on HOP-92 NSCLC was 31.1 µM; in the assay with IGROV1 ovarian, 19.2 µM; in the assay with SK-OV-3 ovarian, 77.5 µM.

For `NNC(=O)C(O)C(O)C(=O)NN` (centres undefined), the TGI in the assay on MOLT-4 leukemia, in the assay with HCT-15 colon, with UACC-62 melanoma, in the assay with BT-549 breast, in the assay on RPMI-8226 leukemia and with HT29 colon was more than 100 µM in each case. The TGI in the assay with OVCAR-5 ovarian, in the assay on IGROV1 ovarian and in the assay with SK-OV-3 ovarian was more than 100 µM throughout.

Turning to `Cc1cc(Nc2nc(-c3ccncc3)nc3ccccc23)n[nH]1`, the GI50 is 33.9 µM in the assay on MOLT-4 leukemia; 1.77 µM with HCT-15 colon; 9.09 µM with BT-549 breast; more than 100 µM in the assay on RPMI-8226 leukemia; 2.88 µM with HT29 colon; 4.39 µM in the assay with HOP-92 NSCLC. The GI50 is more than 100 µM in the assay with OVCAR-5 ovarian, 1.92 µM in the assay on IGROV1 ovarian and 3.45 µM in the assay on SK-OV-3 ovarian. Besides, the TGI with MOLT-4 leukemia, in the assay on HCT-15 colon, in the assay with BT-549 breast, in the assay with RPMI-8226 leukemia, in the assay with HT29 colon and in the assay with HOP-92 NSCLC was more than 100 µM in each case. For the same compound, the TGI with OVCAR-5 ovarian, in the assay on IGROV1 ovarian and in the assay on SK-OV-3 ovarian was more than 100 µM throughout.

Regarding `O=C(Nc1nc2ccccc2s1)c1cc(-c2ccc(F)cc2)n2nc(-c3ccccc3)cc2n1`, the GI50 was 21 µM in the assay on MOLT-4 leukemia; 3.79 µM in the assay with UACC-62 melanoma; 2.05 µM in the assay on BT-549 breast; 5.59 µM in the assay with RPMI-8226 leukemia; 1.69 µM with HOP-92 NSCLC; 4.36 µM with IGROV1 ovarian. Besides, in the assay with SK-OV-3 ovarian, the GI50 was 2.3 µM. For the same compound, the TGI with MOLT-4 leukemia was 71.7 µM; with UACC-62 melanoma, more than 100 µM; in the assay with BT-549 breast, 6.5 µM; in the assay with RPMI-8226 leukemia it was more than 100 µM; in the assay on HOP-92 NSCLC, 5.06 µM; in the assay on IGROV1 ovarian it was more than 100 µM. In addition, the TGI in the assay on SK-OV-3 ovarian was found to be 5.56 µM.

Take `Cc1ccc(S(=NS(=O)(=O)c2ccc(C)cc2)c2ccc(C)cc2)cc1`: the TGI in the assay on HCT-15 colon, in the assay with BT-549 breast, in the assay on RPMI-8226 leukemia, in the assay with HT29 colon, in the assay with HOP-92 NSCLC and in the assay with OVCAR-5 ovarian was more than 100 µM in each case.

With `Cc1ccc2nc(NC(=O)C(=O)CC(=O)c3cccc4ccccc34)sc2c1`, the TGI is more than 100 µM with MOLT-4 leukemia; more than 100 µM in the assay with HCT-15 colon; 86.8 µM with UACC-62 melanoma; more than 100 µM in the assay on RPMI-8226 leukemia; more than 100 µM in the assay on HT29 colon; 69.9 µM in the assay on HOP-92 NSCLC. Besides, the results for the TGI in the assay on OVCAR-5 ovarian, with IGROV1 ovarian and in the assay with SK-OV-3 ovarian were more than 100 µM, more than 100 µM and 36.6 µM, respectively.

Regarding `Cc1c2ccncc2c(C)c2c1[nH]c1ccc(Cl)cc12`, the GI50 was 0.91 µM and 0.471 µM in the assay on MOLT-4 leukemia; 1.41 µM in the assay on HCT-15 colon; 4.13 µM in the assay on UACC-62 melanoma; 1.77 µM in the assay with RPMI-8226 leukemia; 1.04 µM with HT29 colon; 6.56 µM and 1.93 µM in the assay with HOP-92 NSCLC. Besides, the values for the GI50 in the assay with OVCAR-5 ovarian, in the assay on IGROV1 ovarian and in the assay with SK-OV-3 ovarian were 4.32 µM, 3.88 µM and 12.2 µM, respectively. The TGI with MOLT-4 leukemia is 2.59 µM and 2.77 µM; in the assay with HCT-15 colon, 5.17 µM and 3.23 µM; in the assay with UACC-62 melanoma, 11.1 µM and 17 µM; in the assay with RPMI-8226 leukemia, 9.7 µM and 4.43 µM; in the assay with HT29 colon, 9.24 µM and 2.52 µM; with HOP-92 NSCLC it was 17.5 µM and 9.11 µM. Also, the TGI was 16.6 µM and 16.3 µM in the assay on OVCAR-5 ovarian; 13.7 µM and 21.1 µM in the assay with IGROV1 ovarian; 17.9 µM and 31.1 µM in the assay on SK-OV-3 ovarian.

With `CC(N1CCOCC1)C(O)(c1ccccc1)c1ccccn1` (centres undefined), the TGI with HCT-15 colon, in the assay on UACC-62 melanoma, with BT-549 breast, in the assay with RPMI-8226 leukemia, in the assay with HT29 colon and in the assay on HOP-92 NSCLC was more than 100 µM each time. For the same compound, the TGI in the assay on OVCAR-5 ovarian, in the assay on IGROV1 ovarian and with SK-OV-3 ovarian was more than 100 µM each time.

Take `O=C(/C=C/c1ccccc1)CCC1C(=O)NC(=S)NC1=O`: the TGI in the assay with MOLT-4 leukemia, in the assay on HCT-15 colon, with UACC-62 melanoma, in the assay on BT-549 breast, with HOP-92 NSCLC and with OVCAR-5 ovarian was more than 100 µM each time. Moreover, the TGI in the assay on SK-OV-3 ovarian is more than 100 µM.

For the compound `Nc1ccn(C2OC(C(OC3OC(CO)C(O)C(N)C3O)C(O)C(O)C(O)C(O)CO)C(N)C(O)C2O)c(=O)n1` (centres undefined), the TGI is more than 100 µM in the assay on MOLT-4 leukemia; more than 100 µM with HCT-15 colon; more than 100 µM with UACC-62 melanoma; 99 µM with BT-549 breast; more than 100 µM in the assay on RPMI-8226 leukemia; more than 100 µM in the assay on HT29 colon. The TGI is 24.6 µM with HOP-92 NSCLC, more than 100 µM in the assay with OVCAR-5 ovarian and more than 100 µM in the assay on IGROV1 ovarian.

(Values after PubChem BioAssay (NCI).)
